# Measurements taken from ChEMBL document CHEMBL2176908, “Structure-aided design of novel inhibitors of HIV protease based on a benzodiazepine scaffold” (J Med Chem, 2012).
# The source made the active and inactive calls. The calls are words filed in the database; no cut-off is given here.
# Molecular target: Cathepsin D (Homo sapiens) (UniProt P07339)
# Assay: Inhibition of human cathepsin D spectrofluorometry
# Conditions: not given
# Sequence of Cathepsin D (Homo sapiens) (P07339 65-162 limits assumed): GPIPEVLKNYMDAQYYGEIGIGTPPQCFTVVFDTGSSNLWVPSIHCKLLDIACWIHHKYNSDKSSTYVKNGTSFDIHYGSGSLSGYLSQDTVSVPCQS
# Sequence of Cathepsin D (Homo sapiens) (P07339 169-412 limits assumed): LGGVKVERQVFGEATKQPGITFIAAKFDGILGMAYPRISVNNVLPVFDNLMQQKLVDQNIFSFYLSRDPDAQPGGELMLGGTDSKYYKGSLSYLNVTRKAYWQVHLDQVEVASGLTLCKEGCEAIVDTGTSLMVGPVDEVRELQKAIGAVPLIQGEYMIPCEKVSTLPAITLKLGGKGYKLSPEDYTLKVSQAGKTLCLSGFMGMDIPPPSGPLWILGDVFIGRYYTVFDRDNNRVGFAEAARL
row,inhibition,Compound
1,inactive,CC1(C)CC(=O)C2=C(C1)Nc1ccccc1N(C(=O)C(=O)N1c3ccccc3NC3=C(C(=O)CC(C)(C)C3)C1c1ccccc1)C2c1ccccc1 (mixture of isomers; 5a) [listing 1 of 2 here]

# Molecular target: T1, Papain (Carica papaya) (UniProt P00784)
# T1 sequence (whole entry): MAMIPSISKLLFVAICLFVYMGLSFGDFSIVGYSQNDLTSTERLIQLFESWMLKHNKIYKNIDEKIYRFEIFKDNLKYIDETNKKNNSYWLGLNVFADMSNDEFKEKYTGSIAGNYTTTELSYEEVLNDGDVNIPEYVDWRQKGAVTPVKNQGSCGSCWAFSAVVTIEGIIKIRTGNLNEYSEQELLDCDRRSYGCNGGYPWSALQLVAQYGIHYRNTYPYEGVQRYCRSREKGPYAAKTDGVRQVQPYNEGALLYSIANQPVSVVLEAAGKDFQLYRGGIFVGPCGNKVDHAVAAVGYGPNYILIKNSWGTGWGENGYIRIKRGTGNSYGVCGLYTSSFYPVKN
# Assay: Inhibition of papaya papain by spectrofluorometry
# Conditions: not given
row,inhibition,Compound
1,inactive,CC1(C)CC(=O)C2=C(C1)Nc1ccccc1N(C(=O)C(=O)N1c3ccccc3NC3=C(C(=O)CC(C)(C)C3)C1c1ccccc1)C2c1ccccc1 (mixture of isomers; 5a) [listing 1 of 2 here]

# Molecular target: T2, Protease (Human immunodeficiency virus 1, UniProt Q9YQ12)
# T2 sequence (Q9YQ12 whole entry): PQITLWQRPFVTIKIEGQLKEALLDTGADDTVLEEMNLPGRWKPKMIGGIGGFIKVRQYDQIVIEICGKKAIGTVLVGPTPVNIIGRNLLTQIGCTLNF
# Assay: Inhibition of HIV1 protease by spectrophotometric assay
# Conditions: not given
row,Compound,IC50
1,COc1cc([C@@H]2Nc3ccccc3NC3=C2C(=O)C[C@@H](c2ccccc2)C3)cc(Cl)c1O (mixture of isomers),4300 nM
2,CC1(C)CC(=O)C2=C(C1)Nc1ccccc1N(C(=O)C(=O)N1CC3=C(CC(C)(C)CC3=O)Nc3ccccc31)C2,200 nM
3,CC1(C)CC(=O)C2=C(C1)Nc1ccccc1NC2c1ccccc1 (racemic),110000 nM
4,CC1(C)CC(=O)C2=C(C1)Nc1ccccc1N(C(=O)C(=O)N1c3ccccc3NC3=C(C(=O)CC(C)(C)C3)C1c1ccccc1)C2 (racemic),100 nM
5,O=C1CC(c2ccccc2)CC2=C1C(c1ccccc1)Nc1ccccc1N2 (mixture of isomers),20000 nM
6,O=C1CC(c2ccccc2)CC2=C1C(c1ccccc1)N(C(=O)C(=O)N1c3ccccc3NC3=C(C(=O)CC(c4ccccc4)C3)C1c1ccccc1)c1ccccc1N2 (mixture of isomers),60 nM

# The next lines start with the values.
row,IC50,Compound
1,> 1000 nM,CC1(C)CC(=O)C2=C(C1)Nc1ccccc1N(C(=O)C(=O)N1c3ccccc3NC3=C(C(=O)CC(C)(C)C3)[C@H]1c1ccccc1)[C@H]2c1ccccc1
2,300 nM,CC1(C)CC(=O)C2=C(C1)Nc1ccccc1N(C(=O)C(F)(F)C(=O)N1c3ccccc3NC3=C(C(=O)CC(C)(C)C3)C1c1ccccc1)C2c1ccccc1 (mixture of isomers)
3,30 nM,CC1(C)CC(=O)C2=C(C1)Nc1ccccc1N(C(=O)C(=O)N1c3ccccc3NC3=C(C(=O)CC(C)(C)C3)C1c1ccccc1)C2c1ccccc1 (mixture of isomers; 5a) [listing 2 of 2 here]
4,30 nM,CC1(C)CC(=O)C2=C(C1)Nc1ccccc1N(C(=O)C(=O)N1c3ccccc3NC3=C(C(=O)CC(C)(C)C3)C1c1ccccc1)C2c1ccccc1 (mixture of isomers; 5)

# Molecular target: T2, Protease
# Assay: Inhibition of HIV1 protease by double-reciprocal Lineweaver-Burk plot
# Conditions: read-out: Ki(app)
row,Compound,Ki
1,COc1cc([C@@H]2Nc3ccccc3NC3=C2C(=O)C[C@@H](c2ccccc2)C3)cc(Cl)c1O (mixture of isomers),≤ 12 nM
2,CC1(C)CC(=O)C2=C(C1)Nc1ccccc1N(C(=O)C(=O)N1CC3=C(CC(C)(C)CC3=O)Nc3ccccc31)C2,≤ 12 nM
3,CC1(C)CC(=O)C2=C(C1)Nc1ccccc1NC2c1ccccc1 (racemic),≤ 12 nM
4,CC1(C)CC(=O)C2=C(C1)Nc1ccccc1N(C(=O)C(=O)N1c3ccccc3NC3=C(C(=O)CC(C)(C)C3)C1c1ccccc1)C2 (racemic),≤ 12 nM
5,O=C1CC(c2ccccc2)CC2=C1C(c1ccccc1)Nc1ccccc1N2 (mixture of isomers),≤ 12 nM
6,O=C1CC(c2ccccc2)CC2=C1C(c1ccccc1)N(C(=O)C(=O)N1c3ccccc3NC3=C(C(=O)CC(c4ccccc4)C3)C1c1ccccc1)c1ccccc1N2 (mixture of isomers),≤ 12 nM

# Second part, the compound after the results:
row,Ki,Compound
1,≤ 12 nM,CC1(C)CC(=O)C2=C(C1)Nc1ccccc1N(C(=O)C(=O)N1c3ccccc3NC3=C(C(=O)CC(C)(C)C3)[C@H]1c1ccccc1)[C@H]2c1ccccc1
2,≤ 12 nM,CC1(C)CC(=O)C2=C(C1)Nc1ccccc1N(C(=O)C(F)(F)C(=O)N1c3ccccc3NC3=C(C(=O)CC(C)(C)C3)C1c1ccccc1)C2c1ccccc1 (mixture of isomers)
3,≤ 12 nM,CC1(C)CC(=O)C2=C(C1)Nc1ccccc1N(C(=O)C(=O)N1c3ccccc3NC3=C(C(=O)CC(C)(C)C3)C1c1ccccc1)C2c1ccccc1 (mixture of isomers; 5)
